Reference: patent US20040038201A1, “Diagnostic and therapeutic applications for biomarkers of infection” (Whitehead Institute for Biomedical Research, priority 2002, published 2004)

What was measured:
human macrophages [1] = test: I-TAC ELISA of macrophage supernatants; type: cell-based; settings: for I-TAC production by macrophages in response to bacterial components: supernatants after 24 hours, LPS 1 μg/mL, MDP 100 μg/mL; for I-TAC production by macrophages in response to IFNs: 100 units/mL IFN
human macrophages [2] = type: cell-based; settings: 24-hour time course; LPS 1 μg/mL, LTA 10 μg/mL, MDP 100 μg/mL, hsps 10 μg/mL
human macrophages [3] = test: IL-12 p70 ELISA of macrophage supernatants; type: cell-based; settings: LPS 1 μg/mL, MDP 100 μg/mL
human macrophages [4] = test: Differential (Gram-negative/TLR4-specific) macrophage gene expression after bacterial components or cytokines, HuFL GeneChips; type: cell-based; settings: for expression pattern of the 101 genes differentially regulated by Gram-negative versus Gram-positive bacteria: LPS 1 μg/mL, LTA 10 μg/mL, MDP 100 μg/mL, fMLP 100 nM; for induction of the TLR4-induced core cluster of genes by cytokines: IFNs at 1000 units/mL
human macrophages [5] = test: IL-12 p40 ELISA of macrophage supernatants; type: cell-based; settings: LPS 1 μg/mL, MDP 100 μg/mL
[6] = system: M. abscessus infection, M. tuberculosis infection; settings: exogenous IL-12 therapy; cited from earlier work
mycobacterial infection = settings: supplemental IL-12; cited from earlier work
TLR-4 = biological target: T1, TLR-4 (Homo sapiens, UniProt O00206+Q9Y6Y9); test: TLR-4 antagonist (RSLA) pretreatment, TNF-alpha ELISA of stimulated macrophages; type: cell-based; settings: 1 μg/mL RSLA, 30 minutes pretreatment; 10 μg/mL hsp70
T1 construct: endogenous in cells; host or cells: human monocyte-derived macrophages (primary)
Experimental: FIG. 9 is a graphical representation showing a specific TLR-4 antagonist inhibits production of TNF-alpha by hsp70. Monocytes were plated at […] in 96-well Primaria plates and matured to macrophages as described. Cells were washed with Hank's Balanced Salt Solution incubated overnight in DMEM, 1% human serum, and pretreated for 30 minutes at 37° C. with 1 μg/mL Rhodobacter sphaeroides lipid A (RSLA). RSLA is a specific antagonist of TLR-4. Cells were then stimulated with 0.1 MOI E. coli sd-4, 1 μg/mL LPS, or 10 μg/mL hsp70 to duplicate, and culture media was collected at 0, 2, 6, and 12 hours. ELISAs were performed using manufacturer's protocols.

macrophages = type: cell-based, human
STAT1 = test: Phosphorylation of macrophage STAT1; type: cell-based, human
dendritic cells = test: I-TAC production by dendritic cells (ELISA); settings: 24 hours after exposure to LPS or lipoteichoic acid

T1 sequence (O00206 24-839): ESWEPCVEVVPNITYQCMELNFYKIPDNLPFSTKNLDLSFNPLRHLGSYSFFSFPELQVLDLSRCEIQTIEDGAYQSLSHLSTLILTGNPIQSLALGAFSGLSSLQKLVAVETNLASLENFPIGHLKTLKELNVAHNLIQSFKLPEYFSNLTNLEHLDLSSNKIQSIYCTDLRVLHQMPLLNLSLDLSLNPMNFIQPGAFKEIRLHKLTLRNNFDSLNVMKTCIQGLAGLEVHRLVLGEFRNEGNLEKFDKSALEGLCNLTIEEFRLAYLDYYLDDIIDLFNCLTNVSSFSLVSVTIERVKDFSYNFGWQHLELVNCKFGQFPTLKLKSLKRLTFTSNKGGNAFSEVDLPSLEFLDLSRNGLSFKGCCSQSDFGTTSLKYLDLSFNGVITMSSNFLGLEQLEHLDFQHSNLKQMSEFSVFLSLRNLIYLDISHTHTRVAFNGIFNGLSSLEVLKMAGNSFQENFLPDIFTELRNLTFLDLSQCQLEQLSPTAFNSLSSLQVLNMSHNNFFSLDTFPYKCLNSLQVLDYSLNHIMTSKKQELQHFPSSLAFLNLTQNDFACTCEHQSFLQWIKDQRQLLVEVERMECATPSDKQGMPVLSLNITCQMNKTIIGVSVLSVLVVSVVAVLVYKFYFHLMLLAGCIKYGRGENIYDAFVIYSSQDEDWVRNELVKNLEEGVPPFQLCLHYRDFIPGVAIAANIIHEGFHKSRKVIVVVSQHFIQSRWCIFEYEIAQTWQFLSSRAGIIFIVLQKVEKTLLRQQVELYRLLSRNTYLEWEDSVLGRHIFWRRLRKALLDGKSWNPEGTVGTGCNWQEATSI
T1 sequence (Q9Y6Y9 17-160 limits assumed): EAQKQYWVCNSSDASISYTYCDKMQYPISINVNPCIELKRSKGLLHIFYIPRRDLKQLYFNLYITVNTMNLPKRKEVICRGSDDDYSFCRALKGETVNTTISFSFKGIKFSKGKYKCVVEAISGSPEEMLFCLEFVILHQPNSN

## CC(=O)N[C@H]1C(O)O[C@H](CO)[C@@H](O)[C@@H]1O[C@H](C)C(=O)N[C@@H](C)C(=O)N[C@H](CCC(=O)O)C(N)=O (mixture of isomers) [MDP, muramyl dipeptide]
Human macrophages [1]
  I-TAC production by macrophages in response to bacterial components: not
Human macrophages [2]
  induction of the macrophage activation program (gene expression changes): induced the majority of the activation program
Human macrophages [3]
  IL-12 p70 production by macrophages in response to bacterial components: did not
Human macrophages [4]
  induction of the cluster of nine genes specific to Gram-positive bacteria: insufficient to induce this small cluster of genes
  expression pattern of the 101 genes differentially regulated by Gram-negative versus Gram-positive bacteria: induced gene expression changes similar to the Gram-positive organisms
Human macrophages [5]
  IL-12 p40 secretion by macrophages: elicited

## IFN-α
Human macrophages [1]
  I-TAC production by macrophages in response to IFNs: sufficient to induce I-TAC production
Human macrophages [4]
  induction of the TLR4-induced core cluster of genes by cytokines: sufficient to induce the expression of the TLR4-induced core cluster of genes

## IFN-γ: IFN-γ from R&D Systems
Human macrophages [1]
  I-TAC production by macrophages in response to IFNs: sufficient to induce I-TAC production
Human macrophages [4]
  induction of the TLR4-induced core cluster of genes by cytokines: sufficient to induce the expression of the TLR4-induced core cluster of genes

## IL-12: cytokine incubated with macrophages; exogenous IL-12 therapy in cited studies
[6]
  clinical outcome in patients with infections refractory to antibiotics and supplemental IFN-γ: rescued two patients
Human macrophages [4]
  induction of the TLR4-induced core cluster of genes by cytokines: failed to induce comparable gene expression changes
Mycobacterial infection
  clearance of mycobacterial infection in normal mice: enhances the ability of normal mice to clear a mycobacterial infection

## Rhodobacter sphaeroides lipid A [RSLA]
TLR-4
  production of TNF-alpha by hsp70-stimulated macrophages after antagonist pretreatment: inhibits

## formyl-methionine-leucine-phenylalanine [formyl-MetLeuPhe]
Human macrophages [4]
  expression pattern of the 101 genes differentially regulated by Gram-negative versus Gram-positive bacteria: failed to induce expression changes that were characteristic of either class of bacteria

## hsp70: Recombinant mycobacterial heat shock protein from StressGen
Human macrophages [2]
  induction of the macrophage activation program (gene expression changes): induced the majority of the activation program
macrophages; 0.06 Eu/mL = 13 pg/mL LPS, 10 μg/mL hsp 70
  cytokine elicited relative to the endotoxin-equivalent amount of LPS: 3-6 times

## lipopolysaccharide [LPS]
Human macrophages [1]; 24 hours after exposure to LPS or lipoteichoic acid
  maximum level of I-TAC secretion, macrophages: 2.8 ng/mL
Human macrophages [1]
  I-TAC production by macrophages in response to bacterial components: induced
STAT1
  phosphorylation of macrophage STAT1: observed
Human macrophages [2]
  induction of the macrophage activation program (gene expression changes): induced the majority of the activation program
Dendritic cells
  maximum level of I-TAC secretion, dendritic cells: 59 ng/mL
Human macrophages [3]
  IL-12 p70 production by macrophages in response to bacterial components: stimulated p70 production
Human macrophages [4]
  gene expression changes compared with whole Gram-negative bacteria: less robust in magnitude and duration
  expression pattern of the 101 genes differentially regulated by Gram-negative versus Gram-positive bacteria: recapitulated the expression pattern of the 101 genes
macrophages; LPS titration
  endotoxin levels that did not stimulate production of either cytokine (TNF-alpha, IL-12 p40): lower than 1.4 Eu/mL
  endotoxin required to elicit IL-12 p40 relative to TNF-alpha: Roughly 100 fold
Human macrophages [5]
  IL-12 p40 secretion by macrophages: elicited

## lipoteichoic acid [LTA]
Human macrophages [1]
  I-TAC production by macrophages in response to bacterial components: not
Human macrophages [2]
  induction of the macrophage activation program (gene expression changes): induced the majority of the activation program
Human macrophages [4]
  induction of the cluster of nine genes specific to Gram-positive bacteria: insufficient to induce this small cluster of genes
  expression pattern of the 101 genes differentially regulated by Gram-negative versus Gram-positive bacteria: induced gene expression changes similar to the Gram-positive organisms

## monophosphoryl lipid A
Human macrophages [2]
  induction of the macrophage activation program (gene expression changes): failed to induce this set of gene expression changes

B1: IL-10: cytokine incubated with macrophages (protein, UniProt P22301 19-178, looked up)
Interleukin-10: SPGQGTQSENSCTHFPGNLPNMLRDLRDAFSRVKTFFQMKDQLDNLLLKESLLEDFKGYLGCQALSEMIQFYLEEVMPQAENQDPDIKAHVNSLGENLKTLRLRLRRCHRFLPCENKSKAVEQVKNAFNKLQEKGIYKAMSEFDIFINYIEAYMTMKIRN
Human macrophages [4]
  induction of the TLR4-induced core cluster of genes by cytokines: failed to induce comparable gene expression changes
